Experiments:
Diet-Induced Obese Mice = test: Combination of BAL-1480 and tirzepatide in obese mice (Example 6); type: in vivo
Text: To measure the effect of another APJ agonist, BAL-1480, compound 13 as described by Narayanan et al. in J. Med. Chem. 2021, 64, 3006-3025, on weight loss or body composition in Diet-Induced Obese Mice by GLP-1 receptor agonist tirzepatide.
Measurement used and justifications include: body weight, food intake, water intake, non-fasted blood glucose, and body composition by Echo-MRI.
C57BL/6 obese male mice from Jax and housed to 9-months old were fed with a lean control diet D12450B (10 kcal % fat) and a diet-induced obesity (DIO) diet D12492 (60 kcal % fat) (Research Diets, Inc.).
Male DIO mice were acclimated to a single house cage for two weeks. Body weight, morning non-fasted blood glucose, and body composition were measured for randomization. Target DIO weight range at randomization 51.4-67.5 g. After randomization, mice were given treatment as the following groups (All groups were paired with relative dosing s.c. vehicle (20 mM citrate buffer at pH 7.0, 4 mL/kg) or drinking water with addition of 5 mM Sucralose (5 mM Sucralose, pH 3) to insure water consumption despite possible taste alterations from drug).
Study groups • 0. Lean ctrl, n=7 • 1. DIO+VEH (vehicle), n=7 • 2. DIO+BAL-1480 (0.25 g/L in drug water), n=7 • 3. DIO+BAL-1480 (1 g/L in drug water), n=7 • 4. DIO+tirzepatide (10 nmol/kg), n=7 • 5. DIO+tirzepatide (10 nmol/kg)+BAL-1480 (0.25 g/L in drug water), n=7 • 6. DIO+tirzepatide (10 nmol/kg)+BAL-1480 (1 g/L in drug water), n=7
(0) Lean control: age matched lean mice control (5 mM sucralose water+vehicle, s.c., every 3 days); (1) DIO+VEH: diet-induced obese mice treated with vehicle control (5 mM sucralose water, pH 3+vehicle, s.c., every 3 days); (2) DIO+BAL-1480 (0.25 g/L in drug water): diet-induced obese mice treated with BAL-1480 at 0.25 g/L; (3) DIO+BAL-1480 (1 g/L in drug water): diet-induced obese mice treated with BAL-1480 at 1 g/L; (4) DIO+tirzepatide (10 nmol/kg): diet-induced obese mice treated with tirzepatide at 10 nmol/kg, s.c., every 3 days+5 mM sucralose water, pH 3; (5) DIO+tirzepatide (10 nmol/kg)+BAL-1480 (0.25 g/L in drug water): diet-induced obese mice treated with tirzepatide at 10 nmol/kg in combination with BAL-1480 at 0.25 g/L; (6) DIO+tirzepatide (10 nmol/kg)+BAL-1480 (1 g/L in drug water): diet-induced obese mice treated with tirzepatide at 10 nmol/kg in combination with BAL-1480 at 1 g/L.
Tirzepatide (hydrochloride) was purchased from MCE (Cat No. HY—P1731B/CS-0107005). Mw=4849.91, 10 nmol/kg=0.0485 mg/kg, 4 mL/kg, drug concentration: 0.012 mg/mL in s.c. vehicle, every 3 days. BAL-1480 0.25 g/L or 1 g/L was prepared in drinking water with 5 mM Sucralose, pH 3.
Body weight, food intake, water intake, body composition and morning non-fasted blood glucose were measured during the entire study. After 20 days of treatment and measurement, mice were taken down to harvest tissues for further downstream analysis. On the day of necropsy, blood plasma and organ/tissue samples were collected. Tissue samples were weighed and processed for further tests. Terminal cardiac blood samples (Heparin plasma) were obtained.
Data were expressed as mean±SEM and statistically analyzed by 1-way or 2-way ANOVA

[1] = system: Diet-Induced Obese (DIO) mice; test: Pilot study of BGE-105 in aged DIO mice treated with semaglutide (Example 1); type: in vivo
Text: Endpoints and measurements used to assess effects included: • Body Weight, Clinical Evaluation & Body Condition Score; • Group Food Intake, Water Intake; • Fed Glucose; • Body composition by Echo-MRI; • Baseline and endpoint grid hang tests; and • Endpoint tissue harvest.
25-month-old (aged) C57BL/6 female mice were used in this study. Diet for 25-month-old C57BL/6 mice included lean control D12450B (10 kcal % fat), or a diet induced-obesity (DIO) diet D12492 (60 kcal % fat) (Research Diets, Inc.). The study duration was 37 days. Treatment started on Day 0 and ended on Day 35-36.
Semaglutide was purchased from MCE (Cat No. HY-114118/CS-0069903)
Mice from all Groups (1-5) were measured with fed glucose, and body weight and body composition for randomization.
Body weight, group food intake, group water intake, body composition and grid hang tests were measured and monitored during the study.
On the day of necropsy, blood plasma and tissue samples were collected.

[2] = BAL-1480 monotherapy 1 g/L, both combination groups, vs tirzepatide monotherapy

In the case of `COc1cccc(OC)c1-c1cc(C(=O)N[C@@H](CCN2CCCCC2)CC(=O)NC2CCC2)nn1C1CCCC1` [BAL-1480], the “Fatty liver weight and fat tissue weights at terminal harvest” value (Diet-Induced Obese Mice; BAL-1480 1 g/L and combination groups vs tirzepatide monotherapy) is reported as “reduced the fatty liver weight and fat tissue weights”, the “Muscle to body weight percentages at terminal harvest” value (Diet-Induced Obese Mice; BAL-1480 1 g/L and combination groups, to similar level as lean control mice) is reported as “dramatically increased the muscle to body weight percentages” and the Fat mass percentage (Diet-Induced Obese Mice; [2]) is reported as “significant decrease of fat mass percentage”. The Lean mass percentage (Diet-Induced Obese Mice; [2]) was “significant increase of lean mass percentage”, the Lean/fat ratio (Diet-Induced Obese Mice; [2]) was “significant increase of lean/fat ratio” and the Absolute fat mass (Diet-Induced Obese Mice; BAL-1480 monotherapy 1 g/L, combinations tirzepatide 10 nmol/kg + BAL-1480 0.25 or 1 g/L, vs tirzepatide monotherapy) was “significant reduction of absolute fat mass”. The Weight loss (Diet-Induced Obese Mice; obese mice, BAL-1480 0.25 and 1 g/L in drinking water) was “dose-dependent effect on weight loss”.

semaglutide [reference compound] was tested, and the “Muscle function, grid hang test (latency before mice fell from the grid)” value ([1]; semaglutide 100 nmol/kg, BGE-105 1.1 mg/mL, combination compared to either agent alone) was “increased muscle function”, the “Weight of perigonadal fat at study endpoint” value ([1]; semaglutide 100 nmol/kg, BGE-105 1.1 mg/mL, combination loss statistically significant) was “statistically insignificant loss in perigonadal fat” and the “Quadriceps weight as a percentage of total body weight at study endpoint” value ([1]; semaglutide 100 nmol/kg, BGE-105 1.1 mg/mL, vs DIO control mice) was “increased quadricep weight as a percentage of total body weight, but the increases did not achieve statistical significance”. For the same molecule, the “neutrophil gelatinase-associated lipocalin (NGAL) level at study endpoint” value ([1]; vs DIO control mice) was “decreased plasma NGAL level”.

From patent publication US20240366602A1, “COMBINATION THERAPY OF APELIN RECEPTOR AGONIST AND GLP-1 RECEPTOR AGONIST FOR TREATING A DISEASE OR CONDITION ASSOCIATED WITH WEIGHT GAIN” (BioAge Labs, Inc., priority 2023, published 2024)
